Measurements from patent US9765070B2, “Substituted oxopyridine derivatives” (Bayer Pharma Aktiengesellschaft, priority 2013, dated 2017).

Experiments:
human factor XIa = human factor XIa (Homo sapiens (Human), UniProt P03951); experiment: Measurement of FXIa inhibition (fluorogenic peptide substrate Boc-Glu(OBzl)-Ala-Arg-AMC); format: biochemical; conditions: factor XIa from Kordia 0.45 nM, 15 min preincubation, 30 min at 22° C., fluorescence
Protocol: a.1) Measurement of FXIa Inhibition
(§1) The factor XIa inhibition of the substances according to the invention is determined using a biochemical test system which utilizes the reaction of a peptidic factor XIa substrate to determine the enzymatic activity of human factor XIa. Here, factor XIa cleaves from the peptic factor XIa substrate the C-terminal aminomethylcoumarin (AMC), the fluorescence of which is measured. The determinations are carried out in microtitre plates.
In each case 1 μl of the diluted substance solutions is placed into the wells of white microtitre plates from Greiner (384 wells). 20 μl of assay buffer (50 mM of Tris/HCl pH 7.4; 100 mM of sodium chloride; 5 mM of calcium chloride; 0.1% of bovine serum albumin) and 20 μl of factor XIa from Kordia (0.45 nM in assay buffer) are then added successively. After 15 min of incubation, the enzyme reaction is started by addition of 20 μl of the factor XIa substrate Boc-Glu(OBzl)-Ala-Arg-AMC dissolved in assay buffer (10 μM in assay buffer) from Bachem, the mixture is incubated at room temperature (22° C.) for 30 min and fluorescence is then measured (excitation: 360 nm, emission: 460 nm). The measured emissions of the test batches with test substance are compared to those of control batches without test substance (only dimethyl sulphoxide instead of test substance in dimethyl sulphoxide), and IC50 values are calculated from the concentration/activity relationships.

human plasma kallikrein = human plasma kallikrein (Homo sapiens (Human), UniProt P03952); experiment: Determination of the plasma kallikrein activity (fluorogenic substrate H-Pro-Phe-Arg-AMC); format: biochemical; conditions: plasma kallikrein from Kordia 0.6 nM, 15 min preincubation, 30 min at 22° C., fluorescence
Protocol: a.5) Determination of the Plasma Kallikrein Activity
as §1, with “To determine the plasma kallikrein” for “The factor XIa”, “invention,” for “invention is determined using”, “system is used” for “system”, “plasma kallikrein” for “factor XIa”, “plasma kallikrein.” for “factor XIa.”
In each case 1 μl of the diluted substance solutions is placed into the wells of white microtitre plates from Greiner (384 wells). 20 μl of assay buffer (50 mM Tris/HCl pH 7.4; 100 mM sodium chloride solution; 5 mM of calcium chloride solution; 0.1% of bovine serum albumin) and 20 μl of plasma kallikrein from Kordia (0.6 nM in assay buffer) are then added successively. After 15 min of incubation, the enzyme reaction is started by addition of 20 μl of the substrate H-Pro-Phe-Arg-AMC dissolved in assay buffer (10 μM in assay buffer) from Bachem, the mixture is incubated at room temperature (22° C.) for 30 min and fluorescence is then measured (excitation: 360 nm, emission: 460 nm). The measured emissions of the test batches with test substance are compared to those of control batches without test substance (only dimethyl sulphoxide instead of test substance in dimethyl sulphoxide), and IC50 values are calculated from the concentration/activity relationships.

human plasma kallikrein, sequence (P03952 391-638): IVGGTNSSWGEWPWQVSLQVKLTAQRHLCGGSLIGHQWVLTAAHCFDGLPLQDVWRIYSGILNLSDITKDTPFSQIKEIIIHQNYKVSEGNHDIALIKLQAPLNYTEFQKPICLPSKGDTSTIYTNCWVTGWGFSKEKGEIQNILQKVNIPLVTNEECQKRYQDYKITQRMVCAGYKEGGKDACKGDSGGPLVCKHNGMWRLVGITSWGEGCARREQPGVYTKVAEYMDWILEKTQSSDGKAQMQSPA
human plasma kallikrein, sequence (P03952 20-390 partner): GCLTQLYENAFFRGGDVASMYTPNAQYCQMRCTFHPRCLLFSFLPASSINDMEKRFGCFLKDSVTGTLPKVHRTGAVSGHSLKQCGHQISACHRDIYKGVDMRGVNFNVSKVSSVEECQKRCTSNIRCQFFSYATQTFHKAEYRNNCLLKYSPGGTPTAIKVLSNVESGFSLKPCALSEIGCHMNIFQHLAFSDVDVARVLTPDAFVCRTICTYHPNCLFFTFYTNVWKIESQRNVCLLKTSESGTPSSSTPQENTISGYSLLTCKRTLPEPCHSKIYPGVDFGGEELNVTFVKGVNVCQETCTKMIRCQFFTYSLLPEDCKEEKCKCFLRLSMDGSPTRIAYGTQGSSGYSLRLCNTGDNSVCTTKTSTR
human factor XIa, sequence (P03951 388-625): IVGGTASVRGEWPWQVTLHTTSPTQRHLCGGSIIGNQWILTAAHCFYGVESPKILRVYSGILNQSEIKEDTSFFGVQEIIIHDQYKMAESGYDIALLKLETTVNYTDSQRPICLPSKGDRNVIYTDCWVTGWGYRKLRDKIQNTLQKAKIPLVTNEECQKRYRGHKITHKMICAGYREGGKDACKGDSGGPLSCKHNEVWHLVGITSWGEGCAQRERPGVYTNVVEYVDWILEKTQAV
human factor XIa, sequence (P03951 19-387 partner): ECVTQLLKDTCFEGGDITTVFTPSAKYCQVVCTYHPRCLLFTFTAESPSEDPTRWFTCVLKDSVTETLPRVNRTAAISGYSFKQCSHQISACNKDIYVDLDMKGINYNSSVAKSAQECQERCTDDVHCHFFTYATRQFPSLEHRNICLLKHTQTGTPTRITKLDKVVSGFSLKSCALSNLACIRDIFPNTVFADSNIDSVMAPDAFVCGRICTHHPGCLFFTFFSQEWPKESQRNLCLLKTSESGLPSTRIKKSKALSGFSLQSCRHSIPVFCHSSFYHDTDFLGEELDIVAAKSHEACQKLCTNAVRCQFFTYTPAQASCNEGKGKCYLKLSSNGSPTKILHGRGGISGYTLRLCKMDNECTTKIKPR

SMILES | IC50 (human factor XIa) [nM] | IC50 (human plasma kallikrein) [nM]
O=C(Cn1cc(Cl)c(-c2cc(Cl)ccc2OC(F)F)cc1=O)Nc1ccc2nc(C(=O)O)cn2c1 [Example 8, 6-[({5-Chloro-4-[5-chloro-2-(difluoromethoxy)phenyl]-2-oxopyridin-1(2H)-yl}acetyl)amino]imidazo[1,2-a]pyridine-2-carboxylic acid] | 380 | 
N#Cc1ccc(Cl)cc1-c1cc(=O)n(C(Cc2cnco2)C(=O)Nc2ccc3nccn3c2)cc1Cl (racemic) [Example 30, 2-[5-Chloro-4-(5-chloro-2-cyanophenyl)-2-oxopyridin-1(2H)-yl]-N-(imidazo[1,2-a]pyridin-6-yl)-3-(1,3-oxazol-5-yl)propanamide (racemate)] | 96 | 120
N#Cc1ccc(Cl)cc1-c1cc(=O)n(C(Cc2cnco2)C(=O)Nc2ccc3nccn3c2)cc1OC(F)F (racemic) [Example 31, 2-[4-(5-Chloro-2-cyanophenyl)-5-(difluoromethoxy)-2-oxopyridin-1(2H)-yl]-N-(imidazo[1,2-a]pyridin-6-yl)-3-(1,3-oxazol-5-yl)propanamide (racemate)] | 500 | 970
N#Cc1ccc(Cl)cc1-c1cc(=O)n(C(Cc2cocn2)C(=O)Nc2ccc3nccn3c2)cc1Cl (racemic) [Example 33, 2-[5-Chloro-4-(5-chloro-2-cyanophenyl)-2-oxopyridin-1(2H)-yl]-N-(imidazo[1,2-a]pyridin-6-yl)-3-(1,3-oxazol-4-yl)propanamide (racemate)] | 310 | 250
CCCCc1nnc2ccc(NC(=O)C(CCOC)n3cc(OC)c(-c4cc(Cl)ccc4C#N)cc3=O)cn12 (racemic) [Example 24, N-(3-Butyl[1,2,4]triazolo[4,3-a]pyridin-6-yl)-2-[4-(5-chloro-2-cyanophenyl)-5-methoxy-2-oxopyridin-1(2H)-yl]-4-methoxybutanamide (racemate)] |  | 16
COc1cn(C(Cc2cocn2)C(=O)Nc2ccc3nccn3c2)c(=O)cc1-c1cc(Cl)ccc1C#N (racemic) [Example 32, 2-[4-(5-Chloro-2-cyanophenyl)-5-methoxy-2-oxopyridin-1(2H)-yl]-N-(imidazo[1,2-a]pyridin-6-yl)-3-(1,3-oxazol-4-yl)propanamide (racemate)] | 92 | 
